One data set has as its target hERG channels (Homo sapiens (Human), UniProt Q12809). As to the kind of experiment: hERG Manual Patch Clamp Assay (HEK 293 cells stably expressing hERG channels). The data set is classed as cell-based. The following applies: human, HEK 293 cells stably expressing hERG channels, pH 7.4.
In the next data set the target is hROMK (human Kir1.1) (Homo sapiens (Human), UniProt P48048). In words: Thallium Flux Assay (FluxOR, CHO T-Rex hROMK stable cell line). The data set is classed as cell-based. The following applies: CHO T-Rex hROMK cells, 10-point concentration response curve; read-out: Human ROMK TH Flux IC50.
hROMK (human Kir1.1), sequence (P48048 whole entry): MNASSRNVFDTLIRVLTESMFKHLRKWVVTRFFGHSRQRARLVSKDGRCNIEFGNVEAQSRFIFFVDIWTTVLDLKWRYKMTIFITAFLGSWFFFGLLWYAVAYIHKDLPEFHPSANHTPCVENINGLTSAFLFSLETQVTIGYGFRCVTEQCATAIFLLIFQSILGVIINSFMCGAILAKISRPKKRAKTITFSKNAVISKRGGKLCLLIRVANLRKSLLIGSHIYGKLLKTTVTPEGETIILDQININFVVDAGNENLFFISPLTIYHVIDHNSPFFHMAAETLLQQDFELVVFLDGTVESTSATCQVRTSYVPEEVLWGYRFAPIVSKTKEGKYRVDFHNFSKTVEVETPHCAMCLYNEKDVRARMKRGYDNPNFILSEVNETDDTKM

SMILES strings stand for the structures.

hERG channels, sequence (Q12809 whole entry): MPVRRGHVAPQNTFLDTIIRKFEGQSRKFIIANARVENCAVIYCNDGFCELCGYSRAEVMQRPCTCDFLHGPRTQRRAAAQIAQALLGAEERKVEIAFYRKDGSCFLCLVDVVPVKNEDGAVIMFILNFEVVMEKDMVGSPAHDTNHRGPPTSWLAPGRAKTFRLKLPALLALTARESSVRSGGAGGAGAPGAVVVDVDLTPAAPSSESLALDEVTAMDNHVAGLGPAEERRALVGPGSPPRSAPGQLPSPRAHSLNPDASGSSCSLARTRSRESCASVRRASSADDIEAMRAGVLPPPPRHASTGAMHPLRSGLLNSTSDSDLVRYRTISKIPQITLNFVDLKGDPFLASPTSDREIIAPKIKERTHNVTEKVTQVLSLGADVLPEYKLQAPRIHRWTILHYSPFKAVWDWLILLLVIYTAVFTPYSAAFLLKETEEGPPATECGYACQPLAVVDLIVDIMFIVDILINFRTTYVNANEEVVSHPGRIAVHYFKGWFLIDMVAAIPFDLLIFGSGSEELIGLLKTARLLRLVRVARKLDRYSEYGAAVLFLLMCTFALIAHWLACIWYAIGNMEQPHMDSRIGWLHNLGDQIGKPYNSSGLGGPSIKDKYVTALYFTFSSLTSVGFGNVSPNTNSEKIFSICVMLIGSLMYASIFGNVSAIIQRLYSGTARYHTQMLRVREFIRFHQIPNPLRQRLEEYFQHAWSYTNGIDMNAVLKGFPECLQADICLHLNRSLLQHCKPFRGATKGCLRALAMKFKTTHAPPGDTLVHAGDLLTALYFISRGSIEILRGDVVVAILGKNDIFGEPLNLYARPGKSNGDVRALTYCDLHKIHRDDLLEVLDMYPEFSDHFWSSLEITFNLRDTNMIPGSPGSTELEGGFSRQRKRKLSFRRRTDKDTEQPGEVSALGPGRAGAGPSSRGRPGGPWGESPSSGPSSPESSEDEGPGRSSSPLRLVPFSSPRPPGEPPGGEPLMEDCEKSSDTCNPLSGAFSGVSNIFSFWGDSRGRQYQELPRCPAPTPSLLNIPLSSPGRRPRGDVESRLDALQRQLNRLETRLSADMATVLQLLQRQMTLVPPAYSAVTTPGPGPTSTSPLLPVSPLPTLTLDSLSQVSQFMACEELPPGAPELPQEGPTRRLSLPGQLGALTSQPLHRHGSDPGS

Regarding `Cc1c([C@@H](O)CNCc2cnn(-c3cccc(C#N)c3)c2)ccc2c1COC2=O` [Example 161, (R)-3-(4-(((2-hydroxy-2-(4-methyl-1-oxo-1,3-dihydroisobenzofuran-5-yl)ethyl)amino)methyl)-1H-pyrazol-1-yl)benzonitrile], the inhibition (usually the change of the read-out against control, counted positive when it falls) at 1 µM against hERG channels was 48%. Moreover, the IC50 (in general, the point on the concentration scale where inhibition reaches its midpoint) on hROMK (human Kir1.1) was found to be 77 nM.

For the compound `Cc1cnc(-n2cc(CNC[C@H](O)c3ccc4c(c3C)COC4=O)cn2)cc1C#N` [Example 49, (R)-2-(4-(((2-hydroxy-2-(4-methyl-1-oxo-1,3-dihydroisobenzofuran-5-yl)ethyl)amino)methyl)-1H-pyrazol-1-yl)-5-methylisonicotinonitrile], on hERG channels, at 1 µM the inhibition was 18%. In addition, at hROMK (human Kir1.1), the IC50 stood at 32 nM.

With `Cc1c([C@@H](O)CNCc2ccc(-n3cnc(C#N)c3)nc2)ccc2c1COC2=O` [Example 131, (R)-1-(5-(((2-hydroxy-2-(4-methyl-1-oxo-1,3-dihydroisobenzofuran-5-yl)ethyl)amino)methyl)pyridin-2-yl)-1H-imidazole-4-carbonitrile], the inhibition at 1 µM at hERG channels was 79%. In addition, at hROMK (human Kir1.1), the IC50 amounted to 9.2 nM.

As to `Cc1c([C@@H](O)CNCc2ccc(-n3ccnc3)nc2)ccc2c1COC2=O` [Example 109, (R)-5-(2-(((6-(1H-imidazol-1-yl)pyridin-3-yl)methyl)amino)-1-hydroxyethyl)-4-methylisobenzofuran-1(3H)-one], the inhibition at 1 µM against hERG channels worked out at 12%. In addition, at hROMK (human Kir1.1), the IC50 was determined as 40 nM.

As to `COc1nn(-c2ccc(CNC[C@H](O)c3ccc4c(c3C)COC4=O)cn2)cc1C#N` [Example 104, (R)-1-(5-(((2-hydroxy-2-(4-methyl-1-oxo-1,3-dihydroisobenzofuran-5-yl)ethyl)amino)methyl)pyridin-2-yl)-3-methoxy-1H-pyrazole-4-carbonitrile], the inhibition at 1 µM at hERG channels was found to be 42%. Further, the half-maximal inhibitory concentration (IC50) at hROMK (human Kir1.1) came to 9.4 nM.

Compound `Cc1c([C@@H](O)CNCc2ccc(-n3cnc(C#N)n3)nc2)ccc2c1COC2=O` [Example 132, (R)-1-(5-(((2-hydroxy-2-(4-methyl-1-oxo-1,3-dihydroisobenzofuran-5-yl)ethyl)amino)methyl)pyridin-2-yl)-1H-1,2,4-triazole-3-carbonitrile] yielded an inhibition at 1 µM against hERG channels of 61%. Further, the IC50 at hROMK (human Kir1.1) was determined as 26 nM.

`Cc1cc(-n2cc(CNC[C@H](F)c3ccc4c(c3C)COC4=O)cn2)ncc1C#N` [Example 167, (R)-6-(4-(((2-fluoro-2-(4-methyl-1-oxo-1,3-dihydroisobenzofuran-5-yl)ethyl)amino)methyl)-1H-pyrazol-1-yl)-4-methylnicotinonitrile] gave an inhibition at 1 µM on hERG channels of 41%. In addition, the IC50 on hROMK (human Kir1.1) came to 68 nM.

As for `Cc1cc(-n2cnc(CNC[C@H](O)c3ccc4c(c3C)COC4=O)c2)nc(C)c1C#N` [Example 68, (R)-6-(4-(((2-hydroxy-2-(4-methyl-1-oxo-1,3-dihydroisobenzofuran-5-yl)ethyl)amino)methyl)-1H-imidazol-1-yl)-2,4-dimethylnicotinonitrile], testing at 1 µM against hERG channels gave an inhibition of 17%. Further, the half-inhibitory concentration (IC50) on hROMK (human Kir1.1) was determined as 38 nM.

On hERG channels, `Cc1c(C(O)CN(C)Cc2ccc(-n3ccc4c(C#N)cccc43)cc2)ccc2c1COC2=O` (single isomer, unassigned) [Example 28-I, 1-(4-(((2-hydroxy-2-(4-methyl-1-oxo-1,3-dihydroisobenzofuran-5-yl)ethyl)(methyl)amino)methyl)phenyl)-1H-indole-4-carbonitrile] gave an inhibition at 1 µM of 94%. In addition, the IC50 on hROMK (human Kir1.1) came out at 180 nM.

In turn, `CNc1cc(-n2cc(CNC[C@H](O)c3ccc4c(c3C)COC4=O)cn2)ncc1C#N` [Example 146, (R)-6-(4-(((2-hydroxy-2-(4-methyl-1-oxo-1,3-dihydroisobenzofuran-5-yl)ethyl)amino)methyl)-1H-pyrazol-1-yl)-4-(methylamino)nicotinonitrile] had an inhibition at 1 µM against hERG channels of 61%. Also, the IC50 on hROMK (human Kir1.1) was 25 nM.

In the case of `COc1cc(-c2ccc(CNC[C@H](O)c3ccc4c(c3C)COC4=O)c(OC)n2)ncc1C#N` [Example 82, (R)-5′-(((2-hydroxy-2-(4-methyl-1-oxo-1,3-dihydroisobenzofuran-5-yl)ethyl)amino)methyl)-4,6′-dimethoxy-[2,2′-bipyridine]-5-carbonitrile], the inhibition at 1 µM against hERG channels was 44%. In addition, the IC50 on hROMK (human Kir1.1) amounted to 31 nM.

`Cc1cn(-c2ccc(CNC[C@H](O)c3ccc4c(c3C)COC4=O)cn2)nc1C#N` [Example 92, (R)-1-(5-(((2-hydroxy-2-(4-methyl-1-oxo-1,3-dihydroisobenzofuran-5-yl)ethyl)amino)methyl)pyridin-2-yl)-4-methyl-1H-pyrazole-3-carbonitrile] gave an inhibition at 1 µM at hERG channels of 24%. In addition, the half-inhibitory concentration (IC50) on hROMK (human Kir1.1) is 6.4 nM.

`Cc1cc(-c2ccc(CN(C)CC(O)c3ccc4c(c3C)COC4=O)cc2)ncc1C#N` (single isomer, unassigned) [Example 31-I, 6-(4-(((2-hydroxy-2-(4-methyl-1-oxo-1,3-dihydroisobenzofuran-5-yl)ethyl)(methyl)amino)methyl)phenyl)-4-methylnicotinonitrile] came in with an inhibition at 1 µM against hERG channels of 39%. For the same compound, the concentration for half-maximal inhibition (IC50) at hROMK (human Kir1.1) amounted to 40 nM.

In turn, `COc1cc(-n2cc(CNC[C@H](O)c3ccc4c(c3OC)COC4=O)cn2)ncc1C#N` [Example 150, (R)-6-(4-(((2-hydroxy-2-(4-methoxy-1-oxo-1,3-dihydroisobenzofuran-5-yl)ethyl)amino)methyl)-1H-pyrazol-1-yl)-4-methoxynicotinonitrile] registered an inhibition at 1 µM at hERG channels of 55%. The half-inhibitory concentration (IC50) at hROMK (human Kir1.1) was 56 nM.

Turning to `Cc1cn(-c2ncc(CNC[C@H](O)c3ccc4c(c3C)COC4=O)cn2)nc1C#N` [Example 94, (R)-1-(5-(((2-hydroxy-2-(4-methyl-1-oxo-1,3-dihydroisobenzofuran-5-yl)ethyl)amino)methyl)pyrimidin-2-yl)-4-methyl-1H-pyrazole-3-carbonitrile], at 1 µM the inhibition against hERG channels was 13%. For the same compound, the half-maximal inhibitory concentration (IC50) at hROMK (human Kir1.1) is 56 nM.

Turning to `COc1c(CNC[C@H](O)c2ccc3c(c2C)COC3=O)cnn1-c1cc(C)c(C#N)cn1` [Example 35, (R)-6-(4-(((2-hydroxy-2-(4-methyl-1-oxo-1,3-dihydroisobenzofuran-5-yl)ethyl)amino)methyl)-5-methoxy-1H-pyrazol-1-yl)-4-methylnicotinonitrile], the inhibition at 1 µM on hERG channels is 91%. Besides, on hROMK (human Kir1.1), the half-maximal inhibitory concentration (IC50) worked out at 1 nM.

As to `Cc1c(C(O)CN(C)Cc2cnc(-c3ccc(C#N)c(F)c3)nc2)ccc2c1COC2=O` (stereo not shown) [Example 19-I, 2-fluoro-4-(5-(((2-hydroxy-2-(4-methyl-1-oxo-1,3-dihydroisobenzofuran-5-yl)ethyl)(methyl)amino)methyl)pyrimidin-2-yl)benzonitrile], testing at 1 µM against hERG channels gave an inhibition of 33%. In addition, at hROMK (human Kir1.1), the concentration for half-maximal inhibition (IC50) is 150 nM.

In the case of `COC(=O)N[C@@H](CNCc1cnn(-c2cc(C)c(C#N)cn2)c1)c1ccc2c(c1C)COC2=O` [Example 60, methyl (R)-(2-(((1-(5-cyano-4-methylpyridin-2-yl)-1H-pyrazol-4-yl)methyl)amino)-1-(4-methyl-1-oxo-1,3-dihydroisobenzofuran-5-yl)ethyl)carbamate], at hERG channels, the inhibition at 1 µM was determined as 12%. The IC50 at hROMK (human Kir1.1) came to 72 nM.

Regarding `COc1cc(-n2cc(CNC[C@H](O)c3ccc4c(c3C)COC4=O)cn2)nc(C)c1C#N` [Example 70, (R)-6-(4-(((2-hydroxy-2-(4-methyl-1-oxo-1,3-dihydroisobenzofuran-5-yl)ethyl)amino)methyl)-1H-pyrazol-1-yl)-4-methoxy-2-methylnicotinonitrile], the inhibition at 1 µM against hERG channels is 27%. On hROMK (human Kir1.1), the half-maximal inhibitory concentration (IC50) turned out to be 19 nM.

The compound `COc1cc(-n2ncc3c(CNC[C@H](O)c4ccc5c(c4C)COC5=O)cccc32)ncc1C#N` [Example 55] gave an inhibition at 1 µM against hERG channels of 69%. In addition, at hROMK (human Kir1.1), the IC50 stood at 78 nM.

Compound `Cc1ncn(-c2ncc(CNC[C@H](O)c3ccc4c(c3C)COC4=O)cn2)c1C` [Example 88, (R)-5-(2-(((2-(4,5-dimethyl-1H-imidazol-1-yl)pyrimidin-5-yl)methyl)amino)-1-hydroxyethyl)-4-methylisobenzofuran-1(3H)-one] returned an inhibition at 1 µM against hERG channels of 3.6%. For the same compound, at hROMK (human Kir1.1), the 50% inhibitory concentration (IC50) is 42 nM.

`Cc1c([C@@H](O)CNCc2cnc(-n3cc(C#N)c(C4CC4)n3)nc2)ccc2c1COC2=O` [Example 117, (R)-3-cyclopropyl-1-(5-(((2-hydroxy-2-(4-methyl-1-oxo-1,3-dihydroisobenzofuran-5-yl)ethyl)amino)methyl)pyrimidin-2-yl)-1H-pyrazole-4-carbonitrile] registered an inhibition at 1 µM at hERG channels of 32%. Further, the IC50 on hROMK (human Kir1.1) came out at 24 nM.

In the case of `Cc1c([C@@H](O)CNCc2cn(-c3ccc4oc(=O)n(C)c4c3C)cn2)ccc2c1COC2=O` [Example 149, (R)-5-(4-(((2-hydroxy-2-(4-methyl-1-oxo-1,3-dihydroisobenzofuran-5-yl)ethyl)amino)methyl)-1H-imidazol-1-yl)-3,4-dimethylbenzo[d]oxazol-2(3H)-one], 1 µM produced 8.6% inhibition against hERG channels. For the same compound, the IC50 on hROMK (human Kir1.1) came out at 84 nM.

`Cc1cc(-n2cc(CNC[C@H](NCCO)c3ccc4c(c3C)COC4=O)cn2)ncc1C#N` [Example 56, (R)-6-(4-(((2-((2-hydroxyethyl)amino)-2-(4-methyl-1-oxo-1,3-dihydroisobenzofuran-5-yl)ethyl)amino)methyl)-1H-pyrazol-1-yl)-4-methylnicotinonitrile] showed an inhibition at 1 µM at hERG channels of 3.7%. The 50% inhibitory concentration (IC50) at hROMK (human Kir1.1) came to 80 nM.

Regarding `Cc1c(-c2cnn(CCNC[C@H](O)c3ccc4c(c3C)COC4=O)c2)ccc2c1COC2=O` [Example 43, (R)-5-(l-hydroxy-2-((2-(4-(4-methyl-1-oxo-1,3-dihydroisobenzofuran-5-yl)-1H-pyrazol-1-yl)ethyl)amino)ethyl)-4-methylisobenzofuran-1(3H)-one], testing at 1 µM against hERG channels gave an inhibition of 7.1%. For the same compound, the IC50 at hROMK (human Kir1.1) turned out to be 66 nM.

With `CO[C@@H](CNCc1cnn(-c2cc(C)c(C#N)cn2)c1)c1ccc2c(c1C)COC2=O` [Example 147, (R)-6-(4-(((2-methoxy-2-(4-methyl-1-oxo-1,3-dihydroisobenzofuran-5-yl)ethyl)amino)methyl)-1H-pyrazol-1-yl)-4-methylnicotinonitrile], at 1 µM the inhibition at hERG channels was 28%. Besides, the IC50 at hROMK (human Kir1.1) is 37 nM.
